Several values for one entry are separate records, joined by “and”; a condition that tells them apart may be missing. Equal entries are not always repeated.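 Method: 48-hour compound exposure of cells in 96-well plates, five concentrations, linear interpolation of endpoints. Here, GI50 denotes the concentration required for 50% inhibition of growth. TGI denotes the concentration required for complete inhibition of growth.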
system: SNB-78 CNS; assay: growth of human tumour cells (NCI), 48 h

SMILES | TGI
COc1cc([C@@H]2c3cc4c(cc3[C@@H](NC(=O)c3ccc(C#N)cc3)C3COC(=O)[C@@H]32)OCO4)cc(OC)c1O (stereo not given in full) | 58.2 µM
O=[N+]([O-])c1cccc(C2=NN(c3ccccc3)C3c4cc(Br)ccc4OCC23)c1 (stereo not given) | > 100 µM
COc1cc2oc(-c3ccc(O)cc3)cc(=O)c2c(O)c1C1OC(CO)C(O)C(O)C1O (stereo not given) | > 100 µM
C[C@]12Cc3cn[nH]c3C(=O)C1CC[C@@H]1C2CC[C@@]2(C)C1CC[C@@H]2O (stereo not given in full) | > 100 µM
NNC(=O)C(=O)N/N=C1/CCCC1C(=O)CCC(=O)Nc1ccc(Cl)cc1 (stereo not given) | > 100 µM
COC(=O)CCC(NC(=S)N/N=C/c1cccs1)C(=O)OC (stereo not given) | > 100 µM
O=c1/c(=C/c2ccccc2[N+](=O)[O-])sc2nnc(-c3cccnc3)n12 | > 100 µM
CCOC(=O)c1nc(C)oc1C(F)(F)F | > 100 µM
O=C1/C(=C\c2ccccc2)CN(C(=O)CCN2CCCCC2)C/C1=C/c1ccccc1 | 10.6 µM
COc1nc2c(c(O)c(C)c(=O)n2OC2OCC(OC(C)=O)C(OC(C)=O)C2OC(C)=O)c(=O)n1C (stereo not given) | > 100 µM
CCc1ccccc1NC(=O)c1cccc([N+](=O)[O-])c1O | 94.2 µM
O=C(NC1C(=O)NNC1c1cccc([N+](=O)[O-])c1)c1ccccc1 (stereo not given) | > 100 µM
CC1=C(C(=O)Nc2ccccc2)C(c2ccc(N(C)C)cc2)C(C(=O)Nc2ccccc2)=C(C)N1 | > 100 µM

system: RXF-631 renal; assay: growth of human tumour cells (NCI), 48 h

SMILES | TGI | GI50
Cc1nc2ccccc2nc1CC(=O)C(=O)Nc1ccc(Cl)cc1Cl | > 100 µM | –
N#C/C(=C\c1cc(OCc2ccccc2)c(OCc2ccccc2)cn1)C(N)=O | > 100 µM | –
COC1N(C2CC(O)C(CO)O2)C(=O)NC(=O)C1(F)Br (stereo not given) | 50 µM | –
N#CC(C(=O)C(=O)Nc1c(Cl)cccc1Cl)c1ccccc1 (stereo not given) | > 100 µM | > 100 µM
COC(=O)C1C(C(=O)OC)C2C(=O)C3C(C(=O)OC)C(C(=O)OC)C3C(=O)C12 (stereo not given) | > 100 µM | –
Cc1nc(N)nc(CCC(=O)Nc2cccc(C(F)(F)F)c2)c1-c1ccc(Cl)cc1 | > 100 µM | –
NNC(=O)C(=O)N/N=C1/CCCC1C(=O)CCC(=O)Nc1ccc(Cl)cc1 (stereo not given) | > 100 µM | –
COC(=O)CCC(NC(=S)N/N=C/c1cccs1)C(=O)OC (stereo not given) | > 100 µM | –
O=c1/c(=C/c2ccccc2[N+](=O)[O-])sc2nnc(-c3cccnc3)n12 | > 100 µM | –
COC(=O)/C=C(/C(=O)OC)C1(C)c2cc(C(=O)OC)c(C(=O)OC)c(N)c2C(=N)N1c1ccccc1 (stereo not given) | 86.9 µM | –
O=C1/C(=C\c2ccccc2)CN(C(=O)CCN2CCCCC2)C/C1=C/c1ccccc1 | 4.69 µM | –
CCc1ccccc1NC(=O)c1cccc([N+](=O)[O-])c1O | > 100 µM | –
O=C(NC1C(=O)NNC1c1cccc([N+](=O)[O-])c1)c1ccccc1 (stereo not given) | > 100 µM | –

system: DMS 114 small cell lung; assay: growth of human tumour cells (NCI), 48 h

SMILES | TGI | GI50
O=C1[C@@H]2C(c3c(Cl)cccc3Cl)=NO[C@@H]2C(=O)N1c1ccc(Cc2ccc(N3C(=O)[C@H]4C(c5c(Cl)cccc5Cl)=NO[C@H]4C3=O)cc2)cc1 | > 100 µM | –
O=C1NC2=C(CCCCC/C2=N\O)C12CCCCCC2 | > 100 µM | –
CCc1cccc(C)c1NC(=O)CCc1nc(=S)[nH][nH]1 | > 100 µM | –
N#C/C(=C\c1cc(OCc2ccccc2)c(OCc2ccccc2)cn1)C(N)=O | > 100 µM | –
COC1N(C2CC(O)C(CO)O2)C(=O)NC(=O)C1(F)Br (stereo not given) | 50 µM | –
N#CC(C(=O)C(=O)Nc1c(Cl)cccc1Cl)c1ccccc1 (stereo not given) | > 100 µM | > 100 µM
O=C(NC12CC3CCC1CC(C3)C2)[C@@H]1CCCN1C(=O)OCc1ccccc1 (stereo not given in full) | > 100 µM | –
O=C1NC(=O)c2c1n(Cc1ccccc1)c(=O)n2Cc1ccccc1 | > 100 µM | –
Cc1nc(N)nc(CCC(=O)Nc2cccc(C(F)(F)F)c2)c1-c1ccc(Cl)cc1 | > 100 µM | –
COc1cc([C@@H]2c3cc4c(cc3[C@@H](NC(=O)c3ccc(C#N)cc3)C3COC(=O)[C@@H]32)OCO4)cc(OC)c1O (stereo not given in full) | 2.27 µM | –
O=[N+]([O-])c1cccc(C2=NN(c3ccccc3)C3c4cc(Br)ccc4OCC23)c1 (stereo not given) | > 100 µM | –
COc1cc2oc(-c3ccc(O)cc3)cc(=O)c2c(O)c1C1OC(CO)C(O)C(O)C1O (stereo not given) | > 100 µM | –
C[C@]12Cc3cn[nH]c3C(=O)C1CC[C@@H]1C2CC[C@@]2(C)C1CC[C@@H]2O (stereo not given in full) | > 100 µM | –
NNC(=O)C(=O)N/N=C1/CCCC1C(=O)CCC(=O)Nc1ccc(Cl)cc1 (stereo not given) | > 100 µM | –
COC(=O)CCC(NC(=S)N/N=C/c1cccs1)C(=O)OC (stereo not given) | > 100 µM | –
O=c1/c(=C/c2ccccc2[N+](=O)[O-])sc2nnc(-c3cccnc3)n12 | > 100 µM | –
COC(=O)/C=C(/C(=O)OC)C1(C)c2cc(C(=O)OC)c(C(=O)OC)c(N)c2C(=N)N1c1ccccc1 (stereo not given) | 31.6 µM | –
CCOC(=O)c1nc(C)oc1C(F)(F)F | > 100 µM | –
O=C1/C(=C\c2ccccc2)CN(C(=O)CCN2CCCCC2)C/C1=C/c1ccccc1 | 3.05 µM | –
Cc1ccc(S(=O)(=O)OCC/C(=C\[Si](C)(C)C)c2ccccc2)cc1 | > 100 µM | –
COc1nc2c(c(O)c(C)c(=O)n2OC2OCC(OC(C)=O)C(OC(C)=O)C2OC(C)=O)c(=O)n1C (stereo not given) | > 100 µM | –
CCc1ccccc1NC(=O)c1cccc([N+](=O)[O-])c1O | 51.5 µM | –
O=C(NC1C(=O)NNC1c1cccc([N+](=O)[O-])c1)c1ccccc1 (stereo not given) | > 100 µM | –
CC1=C(C(=O)Nc2ccccc2)C(c2ccc(N(C)C)cc2)C(C(=O)Nc2ccccc2)=C(C)N1 | 6.57 µM | –

system: M19-MEL melanoma; assay: growth of human tumour cells (NCI), 48 h

SMILES | TGI | GI50
Cc1nc2ccccc2nc1CC(=O)C(=O)Nc1ccc(Cl)cc1Cl | > 100 µM | –
COc1cc(Nc2cnc3ccc(C(F)(F)F)cc3n2)cc(OC)c1OC | > 100 µM | –
O=C1[C@@H]2C(c3c(Cl)cccc3Cl)=NO[C@@H]2C(=O)N1c1ccc(Cc2ccc(N3C(=O)[C@H]4C(c5c(Cl)cccc5Cl)=NO[C@H]4C3=O)cc2)cc1 | > 100 µM | –
O=C1NC2=C(CCCCC/C2=N\O)C12CCCCCC2 | > 100 µM | –
CCc1cccc(C)c1NC(=O)CCc1nc(=S)[nH][nH]1 | > 100 µM | –
N#C/C(=C\c1cc(OCc2ccccc2)c(OCc2ccccc2)cn1)C(N)=O | > 100 µM | –
N#CC(C(=O)C(=O)Nc1c(Cl)cccc1Cl)c1ccccc1 (stereo not given) | > 100 µM | > 100 µM
COC(=O)C1C(C(=O)OC)C2C(=O)C3C(C(=O)OC)C(C(=O)OC)C3C(=O)C12 (stereo not given) | > 100 µM | –
O=C(NC12CC3CCC1CC(C3)C2)[C@@H]1CCCN1C(=O)OCc1ccccc1 (stereo not given in full) | > 100 µM | –
O=C1NC(=O)c2c1n(Cc1ccccc1)c(=O)n2Cc1ccccc1 | > 100 µM | –
Cc1nc(N)nc(CCC(=O)Nc2cccc(C(F)(F)F)c2)c1-c1ccc(Cl)cc1 | > 100 µM | –
COc1cc([C@@H]2c3cc4c(cc3[C@@H](NC(=O)c3ccc(C#N)cc3)C3COC(=O)[C@@H]32)OCO4)cc(OC)c1O (stereo not given in full) | 15.6 µM | –
O=[N+]([O-])c1cccc(C2=NN(c3ccccc3)C3c4cc(Br)ccc4OCC23)c1 (stereo not given) | > 100 µM | –
COc1cc2oc(-c3ccc(O)cc3)cc(=O)c2c(O)c1C1OC(CO)C(O)C(O)C1O (stereo not given) | > 100 µM | –
NNC(=O)C(=O)N/N=C1/CCCC1C(=O)CCC(=O)Nc1ccc(Cl)cc1 (stereo not given) | > 100 µM | –
COC(=O)CCC(NC(=S)N/N=C/c1cccs1)C(=O)OC (stereo not given) | > 100 µM | –
O=c1/c(=C/c2ccccc2[N+](=O)[O-])sc2nnc(-c3cccnc3)n12 | > 100 µM | –
COC(=O)/C=C(/C(=O)OC)C1(C)c2cc(C(=O)OC)c(C(=O)OC)c(N)c2C(=N)N1c1ccccc1 (stereo not given) | 41.9 µM | –
CCOC(=O)c1nc(C)oc1C(F)(F)F | > 100 µM | –
O=C1/C(=C\c2ccccc2)CN(C(=O)CCN2CCCCC2)C/C1=C/c1ccccc1 | 1.78 µM | –
Cc1ccc(S(=O)(=O)OCC/C(=C\[Si](C)(C)C)c2ccccc2)cc1 | > 100 µM | –
COc1nc2c(c(O)c(C)c(=O)n2OC2OCC(OC(C)=O)C(OC(C)=O)C2OC(C)=O)c(=O)n1C (stereo not given) | > 100 µM | –
CCc1ccccc1NC(=O)c1cccc([N+](=O)[O-])c1O | 82.4 µM | –
O=C(NC1C(=O)NNC1c1cccc([N+](=O)[O-])c1)c1ccccc1 (stereo not given) | > 100 µM | –
CC1=C(C(=O)Nc2ccccc2)C(c2ccc(N(C)C)cc2)C(C(=O)Nc2ccccc2)=C(C)N1 | > 28.9 µM | –

system: MDA-N; assay: growth of human tumour cells (NCI), 48 h

SMILES | TGI | GI50
CC(Br)C(=O)NC(CO)C(=O)O (stereo not given) | > 100 µM | –
O=c1c2ccccc2sc2c(CO)ccc(NCCN3CCCCC3)c12 | 11.6 µM | –
CCN(C)c1nc(N(C)CC)c2nc(N(C)CC)nc(N(C)CC)c2n1 | > 100 µM | –
COC1N(C2CC(O)C(CO)O2)C(=O)NC(=O)C1(F)Br (stereo not given) | > 100 µM | –
COc1cc(CNc2nc3cc(N)cc(N)c3nc2-c2ccccc2)cc(OC)c1 | 5.21 µM | 2.33 µM
CCn1c2c(c3ccccc3c1=O)C(=O)c1ccccc1-2 | > 100 µM | –
O=[N+]([O-])c1ccc(Cl)c2c([N+](=O)[O-])cccc12 | 4.29 µM | –
Nc1ncc(Cc2ccc3c(c2)OCO3)c(N)n1 | > 100 µM | –
Cc1cc(O)c2c(c1)C(=O)C=CC2=O | 9.13 µM and 4.68 µM | –
O=C1/C(=C\c2ccccc2)CN(C(=O)CCN2CCCCC2)C/C1=C/c1ccccc1 | 5.4 µM | –
CC1=C(C(=O)Nc2ccccc2)C(c2ccc(N(C)C)cc2)C(C(=O)Nc2ccccc2)=C(C)N1 | > 100 µM | –

From PubChem BioAssay (NCI)
